According to patent publication EP0388528B1, “Carboximidamide derivatives” (KIRIN BEER KABUSHIKI KAISHA, priority 1988, dated 1990):

Key:
[1] = test system: spontaneous hypertensive rats (SHR); experiment: Hypotensive effect on spontaneous hypertensive rats (orally); type: in vivo; settings: systolic pressure 2 hours after administration
Procedure: Systolic pressure of the rats fasted for 24 hour was measured by using the tail cuff method before and 2 hours after administration of the compound. The compound was dissolved in a mixed solvent of polyethylene glycol 200 : physiological saline = 1:1. The control group was administered the solvent alone. The change in blood pressure was expressed as percent of the blood pressure before the administration of the compound in respective groups.

beagles [2] = experiment: Hemodynamic profile in beagles (intraduodenally); type: in vivo; settings: intraduodenal 100 µg/kg, percent change from pretreatment; for Total Peripheral Resistance: mean aortic blood pressure / (coronary + aortic blood flow)
Procedure: The aortic blood pressure, the heart rate and the coronary blood flow of the beagles anesthetized with pentobarbital were determined in the same manner as in the aforementioned Example 1)-7, and the aortic blood flow was measured with an electromagnetic flowmeter (MFV-3100, manufactured by Nihon Kohden) by attaching a probe at the origin of the aorta [test compound: N-cyano-N′-(2-nitroxyethyl)-3-pyridinecarboximidamide (compound (13))]. A nelaton's tube was inserted into the duodenum via a small abdominal incision for administration of the compound (13) (100 µg/kg). Time course changes in respective measurement items were expressed as percent changes from the pretreatment values. Total peripheral resistance was calculated by dividing the mean aortic blood pressure with the sum of the coronary blood flow and the aortic blood flow.

beagles [3] = experiment: Hemodynamic profile in beagles (intravenously); type: in vivo; settings: peak percent change from pretreatment
Procedure: Hemodynamic profile of the compound of the present invention was investigated in beagles anesthetized with pentobarbital (30 mg/kg, intravenously) [test compound: N-cyano-N′-(2-nitroxyethyl)-3-pyridinecarboximidamide (compound (13))]. The thorax was opened under artificial respiration. After administering heparin in an amount of 500 units/kg, a Moravitz's cannula was introduced into the coronary sinus via the right atrium. The coronary sinus outflow was returned to the right external jagular vein. The coronary sinus outflow was measured by an electromagnetic flowmeter (MFU-2100, manufactured by Nihon Kohden) connected to the Moravitz's cannula. A cannula was inserted into the aortic arch through the subclavian artery to measure aortic blood pressure. The aortic blood pressure was measured with a pressure transducer (Nihon Kohden, TP-200T). Heart rate was monitored with a heart rate counter with R waves of electrocardiogram. All parameters were recorded on a thermosensitive recorder (WT-685G, manufactured by Nihon Kohden).
The compound was administered through the cannula inserted into the right femoral vein. Nicorandil was used as a control. As for respective measurement items, peak changes were expressed as percent change from the pretreatment values of the compound (13) or nicorandil.

potassium channel = experiment: Potassium channel activating effect (86Rb efflux from rat thoracic aorta); settings: compound 10⁻⁴ M for 8 minutes, percent of the efflux before application
Procedure: Male Wistar rats (weighing 250-350 g) were dehematized to death, and thoracic aortae were rapidly isolated. The aorta was opened along the longitudinal axis to prepare a flat sheet. The preparation was loaded with ⁸⁶Rb in the Krebs-Ringer solution which contained ⁸⁶Rb in the concentration of 10 µCi/ml and was gassed with 95% O₂ - 5% CO₂ at 37°C for 2 hours. The preparation was then transferred to a Krebs-Ringer solution not containing ⁸⁶Rb, and washed to remove excess radioactivity for 18 minutes by refreshing the solution every 2 minutes. Finally the preparation was placed into a Krebs-Ringer solution containing each compound (10⁻⁴ M) for 8 minutes.
The amount of ⁸⁶Rb efflux from the preparation in each period was determined with a γ-counter.
The increment in efflux rate during the application of the compound was expressed as percent of the efflux before the application of the compound.

male ddY mice = experiment: Effect on hypoxia (survival time in mice); type: in vivo
Procedure: The effect of the compound of the present invention [test compound: N-cyano-N′-(2-nitroxyethyl)-3-pyridinecarboximidamide (compound (13))] on hypoxia was examined in male ddY mice (4 week old). Mice were exposed to a gas mixture of 96% N₂ - 4% O₂ that was streamed in a flow rate of 5 ℓ/min.
The time from the onset of the gas stream till the stop of respiration [survival time (sec)] was measured.
The test compound was orally administered in the dosage form of a 2% suspension in gum arabic 30 minutes before the onset of the gas streaming. The control group was administered a gum arabic suspension only.

[4] = Acute toxicity (oral administration); settings: mouse, in vivo, male ddY mice, read-out: LD₅₀
Procedure: Using male ddY mice (4 week old), acute toxicity on the oral administration of the compound of the present invention was examined [test compound: N-cyano-N′-(2-nitroxyethyl)-3-pyridinecarboximidamide (compound (13))]. As a result, LD₅₀ was about 400 mg/kg.

With N#CNC(=NCCO[N+](=O)[O-])c1cccnc1 [Compound (13), N-cyano-N'-(2-nitroxyethyl)-3-pyridinecarboximidamide] the “Decreasing Rate of Blood Pressure (%)” value ([1]; 0.3 mg/kg p.o.) was 6.76 ± 1.53%, the “Decreasing Rate of Blood Pressure (%)” value ([1]; 0.5 mg/kg p.o.) was 9.12 ± 2.41% and the “Decreasing Rate of Blood Pressure (%)” value ([1]; 1.0 mg/kg p.o.) was 27.31 ± 2.32%. The “Decreasing Rate of Blood Pressure (%)” value ([1]; 3.0 mg/kg p.o.) was 49.99 ± 2.48%, the “Aortic Blood Flow” value (beagles [2]; 1 min after dosage) was 10.0% and the “Coronary Blood Flow” value (beagles [2]; 1 min after dosage) was 1.8± 1.8%. The “Heart Rate” value (beagles [2]; 1 min after dosage) was 0%, the “Mean Aortic Blood Pressure” value (beagles [2]; 1 min after dosage) was -9.8± 1.0% and the “Total Peripheral Resistance” value (beagles [2]; 1 min after dosage) was -17.8%. The “Aortic Blood Flow” value (beagles [2]; 2 min after dosage) was 12.2%, the “Coronary Blood Flow” value (beagles [2]; 2 min after dosage) was 14.4± 2.1% and the “Heart Rate” value (beagles [2]; 2 min after dosage) was 1.6± 1.6%. The “Mean Aortic Blood Pressure” value (beagles [2]; 2 min after dosage) was -14.3± 1.3%, the “Total Peripheral Resistance” value (beagles [2]; 2 min after dosage) was -24.1% and the “Aortic Blood Flow” value (beagles [2]; 3 min after dosage) was 15.1%. The “Coronary Blood Flow” value (beagles [2]; 3 min after dosage) was 38.4± 9.1%, the “Heart Rate” value (beagles [2]; 3 min after dosage) was 0% and the “Mean Aortic Blood Pressure” value (beagles [2]; 3 min after dosage) was -21.2± 1.2%. The “Total Peripheral Resistance” value (beagles [2]; 3 min after dosage) was -33.7%, the “Aortic Blood Flow” value (beagles [2]; 5 min after dosage) was 27.0% and the “Coronary Blood Flow” value (beagles [2]; 5 min after dosage) was 121.5± 22.0%. For the same molecule, the “Heart Rate” value (beagles [2]; 5 min after dosage) was -12.1± 5.1%, the “Mean Aortic Blood Pressure” value (beagles [2]; 5 min after dosage) was -35.0± 2.0% and the “Total Peripheral Resistance” value (beagles [2]; 5 min after dosage) was -49.5%. The “Aortic Blood Flow” value (beagles [2]; 7.5 min after dosage) was 25.5%, the “Coronary Blood Flow” value (beagles [2]; 7.5 min after dosage) was 142.3± 6.5% and the “Heart Rate” value (beagles [2]; 7.5 min after dosage) was -17.5± 4.1%. The “Mean Aortic Blood Pressure” value (beagles [2]; 7.5 min after dosage) was -37.0± 2.9%, the “Total Peripheral Resistance” value (beagles [2]; 7.5 min after dosage) was -50.3% and the “Aortic Blood Flow” value (beagles [2]; 10 min after dosage) was 15.0%. For the same molecule, the “Coronary Blood Flow” value (beagles [2]; 10 min after dosage) was 112.8± 10.6%, the “Heart Rate” value (beagles [2]; 10 min after dosage) was -21.1± 4.4% and the “Mean Aortic Blood Pressure” value (beagles [2]; 10 min after dosage) was -42.0± 2.9%. For the same molecule, the “Total Peripheral Resistance” value (beagles [2]; 10 min after dosage) was -51.1%, the “Aortic Blood Flow” value (beagles [2]; 20 min after dosage) was 10.7% and the “Coronary Blood Flow” value (beagles [2]; 20 min after dosage) was 64.2± 15.4%. The “Heart Rate” value (beagles [2]; 20 min after dosage) was -26.1± 5.5%, the “Mean Aortic Blood Pressure” value (beagles [2]; 20 min after dosage) was -49.4± 3.1% and the “Total Peripheral Resistance” value (beagles [2]; 20 min after dosage) was -55.3%. For the same molecule, the “Aortic Blood Flow” value (beagles [2]; 30 min after dosage) was 8.3%, the “Coronary Blood Flow” value (beagles [2]; 30 min after dosage) was 60.1± 15.1% and the “Heart Rate” value (beagles [2]; 30 min after dosage) was -26.5± 4.6%. The “Mean Aortic Blood Pressure” value (beagles [2]; 30 min after dosage) was -49.0± 3.7%, the “Total Peripheral Resistance” value (beagles [2]; 30 min after dosage) was -55.8% and the “Aortic Blood Flow” value (beagles [2]; 60 min after dosage) was 0.5%. For the same molecule, the “Coronary Blood Flow” value (beagles [2]; 60 min after dosage) was 28.0± 11.6%, the “Heart Rate” value (beagles [2]; 60 min after dosage) was -10.0± 1.4% and the “Mean Aortic Blood Pressure” value (beagles [2]; 60 min after dosage) was -36.5± 7.3%. For the same molecule, the “Total Peripheral Resistance” value (beagles [2]; 60 min after dosage) was -44.3%, the “Coronary Blood Flow” value (beagles [3]; i.v. 3.0 µg/kg) was 16.4±1.8% and the “Heart Rate” value (beagles [3]; i.v. 3.0 µg/kg) was 1.3±1.4%. The “Mean Aortic Blood Pressure” value (beagles [3]; i.v. 3.0 µg/kg) was -15.3±2.5%, the “Coronary Blood Flow” value (beagles [3]; i.v. 10.0 µg/kg) was 96.0±17.6% and the “Heart Rate” value (beagles [3]; i.v. 10.0 µg/kg) was -5.9±2.8%. For the same molecule, the “Mean Aortic Blood Pressure” value (beagles [3]; i.v. 10.0 µg/kg) was -38.5±3.1%, the “Coronary Blood Flow” value (beagles [3]; i.v. 30.0 µg/kg) was 134.1±9.2% and the “Heart Rate” value (beagles [3]; i.v. 30.0 µg/kg) was -16.2±3.3%. For the same molecule, the “Mean Aortic Blood Pressure” value (beagles [3]; i.v. 30.0 µg/kg) was -50.7±2.1%, the “Increment of Efflux (%)” value (potassium channel) was 213.53% and the “Survival Time (sec) mean ± S.E.M.” value (male ddY mice; 0.3 mg/kg orally 30 minutes before 96% N₂ - 4% O₂) was 130.27 ± 9.32 s. For the same molecule, the “Survival Time (sec) mean ± S.E.M.” value (male ddY mice; 1.0 mg/kg orally 30 minutes before 96% N₂ - 4% O₂) was 201.00 ± 13.40 s, the “Survival Time (sec) mean ± S.E.M.” value (male ddY mice; 3.0 mg/kg orally 30 minutes before 96% N₂ - 4% O₂) was 523.15 ± 48.57 s and the LD50 [4] was ~400 mg/kg.
